# Assay results published in ChEMBL document CHEMBL1201862, “PubChem BioAssay data set” (2004).
#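 Grown in 96-well plates, cells were treated for 48 hours with each compound at five concentrations. Insufficient inhibition: endpoint recorded as highest concentration tested. Abbreviation: GI50, concentration required for 50% inhibition of growth.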 The source made the active and inactive calls. Rule as the data show it: active = GI50 up to about 1.1 µM and inactive = higher.
# Key:
# Assay in all cases: growth of human tumour cells (NCI), 48 h
# 786-0 = system: 786-0
# A498 = system: A498
# A549 = system: A549
# ACHN = system: ACHN
# BT-549 = system: BT-549
# CAKI-1 = system: CAKI-1
# COLO 205 = system: COLO 205
# DU-145 = system: DU-145
# EKVX = system: EKVX
# HCT-116 = system: HCT-116
# HCT-15 = system: HCT-15
# HL-60 = system: HL-60
# HOP-62 = system: HOP-62
# HOP-92 = system: HOP-92
# HT-29 = system: HT-29
# Hs-578T = system: Hs-578T
# IGROV-1 = system: IGROV-1
# K562 = system: K562
# KM12 = system: KM12
# LOX IMVI = system: LOX IMVI
# M14 = system: M14
# MCF7 = system: MCF7
# MDA-MB-231 = system: MDA-MB-231
# MDA-MB-435 = system: MDA-MB-435
# MDA-N = system: MDA-N
# MOLT-4 = system: MOLT-4
# Malme-3M = system: Malme-3M
# NCI-H226 = system: NCI-H226
# NCI-H23 = system: NCI-H23
# NCI-H522 = system: NCI-H522
# NCI/ADR-RES = system: NCI/ADR-RES
# OVCAR-3 = system: OVCAR-3
# OVCAR-4 = system: OVCAR-4
# OVCAR-5 = system: OVCAR-5
# OVCAR-8 = system: OVCAR-8
# PC-3 = system: PC-3
# RPMI-8226 = system: RPMI-8226
# RXF 393 = system: RXF 393
# SF-268 = system: SF-268
# SF-295 = system: SF-295
# SK-MEL-28 = system: SK-MEL-28
# SK-MEL-2 = system: SK-MEL-2
# SK-MEL-5 = system: SK-MEL-5
# SK-OV-3 = system: SK-OV-3
# SN12C = system: SN12C
# SNB-19 = system: SNB-19
# SR = system: SR
# SW-620 = system: SW-620
# T47D = system: T47D
# TK-10 = system: TK-10
# U-251 = system: U-251
# UACC-257 = system: UACC-257
# UACC-62 = system: UACC-62
# UO-31 = system: UO-31
# CCRF-CEM = system: CCRF-CEM
# HCC 2998 = system: HCC 2998
# NCI-H460 = system: NCI-H460
# SF-539 = system: SF-539
# SNB-75 = system: SNB-75
smiles,measurement,setting,value
O=C1[C@@H]2Cc3c([nH]c4ccccc34)C(C3CCCCC3)N2C(=O)[C@@H]2CCCN12 (some centres not stated),GI50,786-0,27.8 µM (inactive)
same,GI50,A498,37.8 µM (inactive)
same,GI50,A549,33.1 µM (inactive)
same,GI50,ACHN,28.9 µM (inactive)
same,GI50,BT-549,30.6 µM (inactive)
same,GI50,CAKI-1,31.7 µM (inactive)
same,GI50,COLO 205,21.5 µM (inactive)
same,GI50,DU-145,55.5 µM (inactive)
same,GI50,EKVX,33.5 µM (inactive)
same,GI50,HCT-116,27.5 µM (inactive)
same,GI50,HCT-15,33.4 µM
same,GI50,HL-60,27.3 µM (inactive)
same,GI50,HOP-62,31.4 µM (inactive)
same,GI50,HOP-92,29.6 µM (inactive)
same,GI50,HT-29,28.5 µM (inactive)
same,GI50,Hs-578T,27.9 µM (inactive)
same,GI50,IGROV-1,29.6 µM (inactive)
same,GI50,K562,37.2 µM (inactive)
same,GI50,KM12,23.3 µM (inactive)
same,GI50,LOX IMVI,28.3 µM (inactive)
same,GI50,M14,37.8 µM (inactive)
same,GI50,MCF7,30.4 µM (inactive)
same,GI50,MDA-MB-231,21.1 µM (inactive)
same,GI50,MDA-MB-435,34.2 µM (inactive)
same,GI50,MDA-N,30.2 µM (inactive)
same,GI50,MOLT-4,23 µM (inactive)
same,GI50,Malme-3M,18.9 µM (inactive)
same,GI50,NCI-H226,43.1 µM (inactive)
same,GI50,NCI-H23,38.1 µM (inactive)
same,GI50,NCI-H522,23 µM (inactive)
same,GI50,NCI/ADR-RES,22 µM (inactive)
same,GI50,OVCAR-3,20.4 µM (inactive)
same,GI50,OVCAR-4,35.2 µM (inactive)
same,GI50,OVCAR-5,37.8 µM (inactive)
same,GI50,OVCAR-8,36.7 µM (inactive)
same,GI50,PC-3,22.3 µM (inactive)
same,GI50,RPMI-8226,21.3 µM (inactive)
same,GI50,RXF 393,29.9 µM (inactive)
same,GI50,SF-268,33.5 µM (inactive)
same,GI50,SF-295,21.1 µM (inactive)
same,GI50,SK-MEL-28,50.2 µM (inactive)
same,GI50,SK-MEL-2,20 µM (inactive)
same,GI50,SK-MEL-5,17.7 µM (inactive)
same,GI50,SK-OV-3,46.9 µM (inactive)
same,GI50,SN12C,26.5 µM (inactive)
same,GI50,SNB-19,39.9 µM (inactive)
same,GI50,SR,19.9 µM (inactive)
same,GI50,SW-620,41.2 µM (inactive)
same,GI50,T47D,60 µM (inactive)
same,GI50,TK-10,35.6 µM (inactive)
same,GI50,U-251,33.8 µM (inactive)
same,GI50,UACC-257,29.2 µM (inactive)
same,GI50,UACC-62,17.3 µM (inactive)
same,GI50,UO-31,32.3 µM (inactive)
COc1ccc(/C(=N/N=c2[nH]c3ccccc3[nH]2)C(=O)O)cc1,GI50,786-0,> 100 µM (inactive)
same,GI50,A498,> 100 µM (inactive)
same,GI50,A549,> 100 µM (inactive)
same,GI50,ACHN,> 100 µM (inactive)
same,GI50,BT-549,> 100 µM (inactive)
same,GI50,CAKI-1,> 100 µM (inactive)
same,GI50,CCRF-CEM,> 100 µM (inactive)
same,GI50,COLO 205,> 100 µM (inactive)
same,GI50,DU-145,> 100 µM (inactive)
same,GI50,EKVX,> 100 µM (inactive)
same,GI50,HCC 2998,> 100 µM (inactive)
same,GI50,HCT-116,> 100 µM (inactive)
same,GI50,HCT-15,> 100 µM
same,GI50,HL-60,> 100 µM (inactive)
same,GI50,HOP-62,> 100 µM (inactive)
same,GI50,HOP-92,> 100 µM (inactive)
same,GI50,HT-29,> 100 µM (inactive)
same,GI50,Hs-578T,> 100 µM (inactive)
same,GI50,IGROV-1,> 100 µM (inactive)
same,GI50,K562,> 100 µM (inactive)
same,GI50,KM12,> 100 µM (inactive)
same,GI50,LOX IMVI,> 100 µM (inactive)
same,GI50,M14,> 100 µM (inactive)
same,GI50,MCF7,> 100 µM (inactive)
same,GI50,MDA-MB-231,> 100 µM (inactive)
same,GI50,MDA-MB-435,> 100 µM (inactive)
same,GI50,MDA-N,> 100 µM (inactive)
same,GI50,MOLT-4,> 100 µM (inactive)
same,GI50,Malme-3M,> 100 µM (inactive)
same,GI50,NCI-H226,> 100 µM (inactive)
same,GI50,NCI-H23,> 100 µM (inactive)
same,GI50,NCI-H460,> 100 µM (inactive)
same,GI50,NCI-H522,> 100 µM (inactive)
same,GI50,NCI/ADR-RES,> 100 µM (inactive)
same,GI50,OVCAR-3,> 100 µM (inactive)
same,GI50,OVCAR-4,> 100 µM (inactive)
same,GI50,OVCAR-5,> 100 µM (inactive)
same,GI50,OVCAR-8,> 100 µM (inactive)
same,GI50,PC-3,> 100 µM (inactive)
same,GI50,RPMI-8226,> 100 µM (inactive)
same,GI50,SF-268,> 100 µM (inactive)
same,GI50,SF-295,> 100 µM (inactive)
same,GI50,SF-539,> 100 µM (inactive)
same,GI50,SK-MEL-28,> 100 µM (inactive)
same,GI50,SK-MEL-2,> 100 µM (inactive)
same,GI50,SK-MEL-5,> 100 µM (inactive)
same,GI50,SK-OV-3,> 100 µM (inactive)
same,GI50,SN12C,> 100 µM (inactive)
same,GI50,SNB-19,> 100 µM (inactive)
same,GI50,SNB-75,> 100 µM (inactive)
same,GI50,SR,> 100 µM (inactive)
same,GI50,SW-620,> 100 µM (inactive)
same,GI50,T47D,> 100 µM (inactive)
same,GI50,TK-10,> 100 µM (inactive)
same,GI50,U-251,> 100 µM (inactive)
same,GI50,UACC-257,> 100 µM (inactive)
same,GI50,UACC-62,> 100 µM (inactive)
same,GI50,UO-31,> 100 µM (inactive)
